# Reference: ChEMBL document CHEMBL5465560, “Selectivity Literature for EUbOPEN Chemogenomic Library” (2024)
# Key:
# [1] = target: Serine/threonine-protein kinase 25 (Homo sapiens) (UniProt O00506); experiment: Selectivity interaction (KinomeScan (DiscoverX)) EUB0001049a STK25; details: at 1 µM
# [2] = target: Mitogen-activated protein kinase 3 (Homo sapiens, UniProt P27361); experiment: Selectivity interaction (KinomeScan (DiscoverX)) EUB0000229b MAPK3; details: at 10 µM
# [3] = target: Protein-tyrosine kinase 2-beta (Homo sapiens) (UniProt Q14289); experiment: Selectivity interaction (ActivX KiNativ screen (kinase selectivity in THP-1 cell lysates)) EUB0000639a PTK2B; assay type: subcellular; details: lysate
# [4] = target: Ribosomal protein S6 kinase alpha-1 (Homo sapiens, UniProt Q15418); experiment: Selectivity interaction (ActivX KiNativ screen (kinase selectivity in THP-1 cell lysates)) EUB0000639a RPS6KA1; assay type: subcellular; details: lysate, at 0.2 µM
# [5] = target: Serine/threonine-protein kinase MARK1 (Homo sapiens) (UniProt Q9P0L2); details: at 10 µM
# [6] = target: T1, Mitogen-activated protein kinase 13 (Homo sapiens) (UniProt O15264); experiment: Selectivity interaction (KinomeScan (DiscoverX)) EUB0000045b MAPK13
# T1 sequence (whole entry): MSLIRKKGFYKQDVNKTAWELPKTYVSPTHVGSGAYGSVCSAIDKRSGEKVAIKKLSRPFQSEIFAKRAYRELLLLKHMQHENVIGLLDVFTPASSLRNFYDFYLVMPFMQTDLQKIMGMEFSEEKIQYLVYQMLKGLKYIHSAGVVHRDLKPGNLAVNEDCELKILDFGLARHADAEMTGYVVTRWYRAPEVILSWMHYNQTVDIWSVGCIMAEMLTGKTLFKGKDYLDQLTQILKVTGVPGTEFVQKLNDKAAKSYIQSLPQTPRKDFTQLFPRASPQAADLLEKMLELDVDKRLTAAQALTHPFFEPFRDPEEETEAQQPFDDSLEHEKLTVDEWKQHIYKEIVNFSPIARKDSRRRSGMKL
# [7] = target: Serine/threonine-protein kinase 10 (Homo sapiens) (UniProt O94804); experiment: Selectivity interaction (KinomeScan (DiscoverX)) EUB0000045b STK10
# [8] = target: Tyrosine-protein kinase receptor Tie-1 (Homo sapiens) (UniProt P35590); details: at 10 µM
# [9] = target: T2, Tyrosine-protein kinase ITK/TSK (Homo sapiens) (UniProt Q08881); experiment: Selectivity interaction (KinomeScan (DiscoverX)) EUB0001619a ITK; details: at 1 µM
# T2 sequence (whole entry): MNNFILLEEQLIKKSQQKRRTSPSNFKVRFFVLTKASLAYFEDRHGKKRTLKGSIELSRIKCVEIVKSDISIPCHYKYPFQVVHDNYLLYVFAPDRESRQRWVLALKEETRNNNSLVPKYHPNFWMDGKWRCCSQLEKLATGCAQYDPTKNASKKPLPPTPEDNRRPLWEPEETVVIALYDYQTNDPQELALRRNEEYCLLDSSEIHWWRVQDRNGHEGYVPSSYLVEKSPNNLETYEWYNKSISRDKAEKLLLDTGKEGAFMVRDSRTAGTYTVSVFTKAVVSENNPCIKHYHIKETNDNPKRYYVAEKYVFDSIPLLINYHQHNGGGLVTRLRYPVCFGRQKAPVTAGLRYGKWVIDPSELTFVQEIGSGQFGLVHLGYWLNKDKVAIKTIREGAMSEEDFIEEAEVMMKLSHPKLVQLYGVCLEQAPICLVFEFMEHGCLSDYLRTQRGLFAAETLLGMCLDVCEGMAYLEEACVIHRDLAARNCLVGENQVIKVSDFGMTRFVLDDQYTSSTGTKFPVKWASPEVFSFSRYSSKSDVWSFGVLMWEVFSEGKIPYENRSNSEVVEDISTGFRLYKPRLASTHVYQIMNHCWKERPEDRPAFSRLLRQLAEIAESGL
# [10] = target: STE20-like serine/threonine-protein kinase (Homo sapiens, UniProt Q9H2G2); experiment: Selectivity interaction (KinomeScan (DiscoverX)) EUB0000655a SLK; details: at 10 µM
# [11] = target: T3, Protein arginine N-methyltransferase 9 (Homo sapiens) (UniProt Q6P2P2); experiment: Selectivity interaction (Methyltransferase screen (radiometric assays, panel of 8 PRMTs, 21 protein lysine methyltransferases, 3 DNA methyltransferases, and one RNA methyltransferase)) EUB0000271b PRMT9
# T3 sequence (whole entry): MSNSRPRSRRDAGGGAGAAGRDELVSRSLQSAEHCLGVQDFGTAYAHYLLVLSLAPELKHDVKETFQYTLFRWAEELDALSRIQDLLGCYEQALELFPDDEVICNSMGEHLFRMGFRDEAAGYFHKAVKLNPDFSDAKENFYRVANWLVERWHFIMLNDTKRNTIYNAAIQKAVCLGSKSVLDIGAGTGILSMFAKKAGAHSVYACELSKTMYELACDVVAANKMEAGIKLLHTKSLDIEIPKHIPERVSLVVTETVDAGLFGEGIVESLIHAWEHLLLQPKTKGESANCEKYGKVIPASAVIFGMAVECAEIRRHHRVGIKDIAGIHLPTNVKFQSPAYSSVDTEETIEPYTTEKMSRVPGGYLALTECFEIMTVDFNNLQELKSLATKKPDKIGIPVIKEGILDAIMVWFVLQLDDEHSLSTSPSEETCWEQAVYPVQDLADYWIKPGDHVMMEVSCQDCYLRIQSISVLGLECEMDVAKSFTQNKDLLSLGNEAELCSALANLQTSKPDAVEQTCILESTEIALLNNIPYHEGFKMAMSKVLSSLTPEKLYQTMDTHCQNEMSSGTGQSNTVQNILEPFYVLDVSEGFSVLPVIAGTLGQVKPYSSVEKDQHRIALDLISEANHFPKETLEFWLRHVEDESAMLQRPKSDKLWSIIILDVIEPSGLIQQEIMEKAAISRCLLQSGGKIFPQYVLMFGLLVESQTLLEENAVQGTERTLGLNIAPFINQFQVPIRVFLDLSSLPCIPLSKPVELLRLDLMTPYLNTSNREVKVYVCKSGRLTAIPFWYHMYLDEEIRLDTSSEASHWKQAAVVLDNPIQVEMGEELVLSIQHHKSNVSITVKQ
# [12] = target: Homeodomain-interacting protein kinase 1 (Homo sapiens, UniProt Q86Z02); experiment: Selectivity interaction (ProQinase) EUB0000171b HIPK1
# Sequence of Homeodomain-interacting protein kinase 1 (Q86Z02 whole entry, looked up): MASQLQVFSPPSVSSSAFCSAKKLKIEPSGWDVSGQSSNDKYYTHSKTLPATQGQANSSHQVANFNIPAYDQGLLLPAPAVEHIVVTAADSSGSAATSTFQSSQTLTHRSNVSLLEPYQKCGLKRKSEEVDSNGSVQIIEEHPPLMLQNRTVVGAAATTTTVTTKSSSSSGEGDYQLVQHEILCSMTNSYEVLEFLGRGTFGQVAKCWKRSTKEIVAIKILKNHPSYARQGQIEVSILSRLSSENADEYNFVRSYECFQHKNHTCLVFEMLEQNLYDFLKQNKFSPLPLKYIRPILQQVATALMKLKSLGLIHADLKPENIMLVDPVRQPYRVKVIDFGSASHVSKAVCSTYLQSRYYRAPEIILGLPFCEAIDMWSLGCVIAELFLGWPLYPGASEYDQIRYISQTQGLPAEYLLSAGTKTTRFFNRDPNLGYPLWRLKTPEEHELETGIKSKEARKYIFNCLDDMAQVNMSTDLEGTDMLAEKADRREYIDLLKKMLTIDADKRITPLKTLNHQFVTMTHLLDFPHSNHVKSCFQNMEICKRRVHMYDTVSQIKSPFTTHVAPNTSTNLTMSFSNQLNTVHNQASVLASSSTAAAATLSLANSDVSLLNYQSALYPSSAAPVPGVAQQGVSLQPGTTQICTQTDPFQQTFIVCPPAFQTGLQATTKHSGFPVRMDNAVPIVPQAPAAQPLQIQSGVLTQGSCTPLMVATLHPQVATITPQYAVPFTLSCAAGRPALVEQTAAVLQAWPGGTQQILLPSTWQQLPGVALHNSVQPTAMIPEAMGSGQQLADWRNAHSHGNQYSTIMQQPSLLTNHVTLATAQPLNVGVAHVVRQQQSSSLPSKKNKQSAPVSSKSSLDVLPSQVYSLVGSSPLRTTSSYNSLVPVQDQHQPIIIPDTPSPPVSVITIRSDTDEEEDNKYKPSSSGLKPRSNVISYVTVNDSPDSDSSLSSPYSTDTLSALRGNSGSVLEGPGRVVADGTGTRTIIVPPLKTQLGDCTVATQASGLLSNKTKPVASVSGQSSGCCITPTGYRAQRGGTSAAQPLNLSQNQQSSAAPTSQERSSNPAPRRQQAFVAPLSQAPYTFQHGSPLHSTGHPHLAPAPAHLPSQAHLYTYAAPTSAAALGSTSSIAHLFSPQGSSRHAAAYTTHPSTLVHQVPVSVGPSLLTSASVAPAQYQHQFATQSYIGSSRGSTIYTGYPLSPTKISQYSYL
# Sequence of Protein-tyrosine kinase 2-beta (Homo sapiens) (Q14289 whole entry, looked up): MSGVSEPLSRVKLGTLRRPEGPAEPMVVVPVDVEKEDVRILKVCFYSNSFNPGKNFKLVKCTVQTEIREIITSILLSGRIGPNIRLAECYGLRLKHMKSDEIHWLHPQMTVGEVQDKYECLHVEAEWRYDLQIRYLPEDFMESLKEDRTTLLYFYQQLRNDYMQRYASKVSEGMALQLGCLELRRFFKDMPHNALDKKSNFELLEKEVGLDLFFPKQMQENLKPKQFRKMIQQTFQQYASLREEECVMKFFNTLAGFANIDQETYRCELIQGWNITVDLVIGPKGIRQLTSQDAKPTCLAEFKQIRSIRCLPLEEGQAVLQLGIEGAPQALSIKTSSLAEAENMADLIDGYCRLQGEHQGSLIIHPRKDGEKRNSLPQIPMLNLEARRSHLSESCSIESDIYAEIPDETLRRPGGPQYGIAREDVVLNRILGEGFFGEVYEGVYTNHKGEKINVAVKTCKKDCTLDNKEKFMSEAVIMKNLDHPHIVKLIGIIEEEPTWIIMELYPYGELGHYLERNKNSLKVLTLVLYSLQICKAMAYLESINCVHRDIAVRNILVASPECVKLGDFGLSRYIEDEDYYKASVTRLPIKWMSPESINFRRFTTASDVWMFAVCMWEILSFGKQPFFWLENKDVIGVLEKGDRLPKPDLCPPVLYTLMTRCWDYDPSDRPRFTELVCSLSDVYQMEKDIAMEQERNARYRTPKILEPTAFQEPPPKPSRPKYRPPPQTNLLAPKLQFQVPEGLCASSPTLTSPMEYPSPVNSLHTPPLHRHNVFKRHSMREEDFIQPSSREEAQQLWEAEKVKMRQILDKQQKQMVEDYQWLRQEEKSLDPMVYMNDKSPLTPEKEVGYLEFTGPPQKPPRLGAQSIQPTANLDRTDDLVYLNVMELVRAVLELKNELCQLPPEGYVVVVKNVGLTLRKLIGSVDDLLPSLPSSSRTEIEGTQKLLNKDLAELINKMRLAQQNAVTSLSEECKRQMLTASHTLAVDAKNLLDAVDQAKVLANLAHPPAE
# Sequence of Serine/threonine-protein kinase 10 (Homo sapiens) (O94804 whole entry, looked up): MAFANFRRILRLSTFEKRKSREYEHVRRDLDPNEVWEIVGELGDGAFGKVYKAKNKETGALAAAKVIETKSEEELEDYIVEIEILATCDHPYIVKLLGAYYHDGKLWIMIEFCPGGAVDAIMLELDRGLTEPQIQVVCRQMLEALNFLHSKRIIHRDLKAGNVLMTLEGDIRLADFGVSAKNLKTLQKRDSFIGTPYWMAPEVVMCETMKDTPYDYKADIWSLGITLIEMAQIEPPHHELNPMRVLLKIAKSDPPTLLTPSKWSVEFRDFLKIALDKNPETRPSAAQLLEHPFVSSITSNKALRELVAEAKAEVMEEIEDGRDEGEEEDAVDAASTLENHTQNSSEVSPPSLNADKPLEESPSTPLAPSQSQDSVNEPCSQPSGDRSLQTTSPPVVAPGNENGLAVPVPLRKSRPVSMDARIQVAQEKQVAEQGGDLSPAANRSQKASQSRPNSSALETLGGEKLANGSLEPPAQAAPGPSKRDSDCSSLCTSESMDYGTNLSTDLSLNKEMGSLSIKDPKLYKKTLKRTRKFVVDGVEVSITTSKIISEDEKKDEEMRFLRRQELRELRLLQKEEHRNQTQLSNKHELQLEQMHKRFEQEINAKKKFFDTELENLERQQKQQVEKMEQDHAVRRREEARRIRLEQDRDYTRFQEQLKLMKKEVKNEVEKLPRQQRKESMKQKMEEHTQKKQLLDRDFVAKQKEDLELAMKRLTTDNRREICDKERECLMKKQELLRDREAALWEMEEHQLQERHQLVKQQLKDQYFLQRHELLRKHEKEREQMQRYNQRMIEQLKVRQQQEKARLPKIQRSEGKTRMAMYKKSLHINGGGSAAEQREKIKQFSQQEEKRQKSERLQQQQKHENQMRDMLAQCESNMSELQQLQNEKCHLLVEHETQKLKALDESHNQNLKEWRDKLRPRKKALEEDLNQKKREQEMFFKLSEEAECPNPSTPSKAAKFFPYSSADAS
# Sequence of Ribosomal protein S6 kinase alpha-1 (Q15418 whole entry): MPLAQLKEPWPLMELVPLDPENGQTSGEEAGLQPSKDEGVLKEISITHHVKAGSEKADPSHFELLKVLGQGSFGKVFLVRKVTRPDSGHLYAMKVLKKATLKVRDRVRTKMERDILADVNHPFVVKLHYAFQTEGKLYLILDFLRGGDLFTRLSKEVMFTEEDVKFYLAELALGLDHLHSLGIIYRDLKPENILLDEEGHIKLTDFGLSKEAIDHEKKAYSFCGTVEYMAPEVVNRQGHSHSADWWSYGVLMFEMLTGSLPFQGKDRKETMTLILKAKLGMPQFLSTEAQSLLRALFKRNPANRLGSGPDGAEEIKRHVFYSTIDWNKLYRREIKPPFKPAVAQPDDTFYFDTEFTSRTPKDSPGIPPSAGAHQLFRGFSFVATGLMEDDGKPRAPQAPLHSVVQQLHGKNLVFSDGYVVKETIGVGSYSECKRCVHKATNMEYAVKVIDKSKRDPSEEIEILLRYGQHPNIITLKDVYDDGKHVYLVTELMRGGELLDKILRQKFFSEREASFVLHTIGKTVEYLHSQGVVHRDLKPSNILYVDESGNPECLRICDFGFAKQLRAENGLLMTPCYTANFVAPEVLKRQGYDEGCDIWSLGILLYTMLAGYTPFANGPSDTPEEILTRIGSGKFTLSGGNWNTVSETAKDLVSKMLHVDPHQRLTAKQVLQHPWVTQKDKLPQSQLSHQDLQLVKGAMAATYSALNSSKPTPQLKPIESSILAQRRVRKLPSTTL
# Sequence of Serine/threonine-protein kinase MARK1 (Homo sapiens) (Q9P0L2 whole entry, looked up): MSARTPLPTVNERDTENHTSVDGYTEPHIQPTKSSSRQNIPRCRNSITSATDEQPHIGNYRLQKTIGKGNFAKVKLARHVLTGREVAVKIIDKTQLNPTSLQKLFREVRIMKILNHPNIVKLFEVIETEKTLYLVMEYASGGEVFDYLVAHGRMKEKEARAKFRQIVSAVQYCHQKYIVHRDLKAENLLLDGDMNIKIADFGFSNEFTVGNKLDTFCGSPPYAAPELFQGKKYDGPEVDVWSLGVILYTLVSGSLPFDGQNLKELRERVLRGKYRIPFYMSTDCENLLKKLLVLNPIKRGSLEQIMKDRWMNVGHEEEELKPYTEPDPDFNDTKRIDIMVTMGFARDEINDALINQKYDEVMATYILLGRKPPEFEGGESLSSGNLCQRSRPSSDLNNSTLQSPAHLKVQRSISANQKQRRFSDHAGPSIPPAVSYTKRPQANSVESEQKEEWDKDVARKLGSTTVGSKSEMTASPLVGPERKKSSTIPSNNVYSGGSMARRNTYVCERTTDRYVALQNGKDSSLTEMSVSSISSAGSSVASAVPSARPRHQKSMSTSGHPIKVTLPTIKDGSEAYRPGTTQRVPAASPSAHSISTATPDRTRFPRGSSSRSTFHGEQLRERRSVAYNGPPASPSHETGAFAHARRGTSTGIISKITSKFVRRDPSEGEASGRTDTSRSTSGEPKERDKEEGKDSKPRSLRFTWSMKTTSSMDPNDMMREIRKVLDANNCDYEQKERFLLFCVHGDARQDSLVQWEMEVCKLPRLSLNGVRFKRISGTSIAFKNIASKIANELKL
# Sequence of Mitogen-activated protein kinase 3 (P27361 whole entry): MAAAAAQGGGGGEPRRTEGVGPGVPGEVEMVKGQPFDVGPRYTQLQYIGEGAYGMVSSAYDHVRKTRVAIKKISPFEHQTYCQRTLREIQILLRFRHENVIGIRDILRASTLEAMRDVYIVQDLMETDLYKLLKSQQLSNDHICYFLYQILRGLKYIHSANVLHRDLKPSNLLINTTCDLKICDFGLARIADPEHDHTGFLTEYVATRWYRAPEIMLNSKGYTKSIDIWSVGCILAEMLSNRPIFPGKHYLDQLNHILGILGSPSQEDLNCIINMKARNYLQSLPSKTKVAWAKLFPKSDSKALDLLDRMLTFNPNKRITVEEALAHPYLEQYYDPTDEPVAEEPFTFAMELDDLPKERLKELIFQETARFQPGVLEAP
structure (smiles),measurement,setting,value
COc1cc(Nc2nc(C)cc(-c3cnn4nc(OC)ccc34)n2)cc(C(F)(F)F)c1,% of control,[1],91%
COc1cc(N(C)c2ccnc3ccc(C(F)(F)F)cc23)cc(OC)c1OC,% binding,[2],100%
CC[C@@H]1[C@H](F)C(=O)N[C@@H]1COc1nccc2cc(C(N)=O)c(OC)cc12 [ZIMLOVISERTIB],% of inhibition,[3]; at 0.01 µM,-13.4%
same,% of inhibition,[3]; at 0.04 µM,9.7%
same,% of inhibition,[3]; at 0.2 µM,-2.6%
same,% of inhibition,[3]; at 1 µM,-0.1%
same,% of inhibition,[3]; at 5 µM,-10.1%
same,% of inhibition,[4],-3.6%
COCC(=O)NC/C=C/c1ccc2ncnc(Nc3ccc(Oc4ccc(C)nc4)c(C)c3)c2c1 [CP-724714],% of control,[5],100%
C=CC(=O)Nc1cc(-n2c(=O)ccc3cnc4ccc(-c5ccc(NS(C)(=O)=O)cc5)cc4c32)ccc1C,% of control,[6]; at 1 µM,100%
same,% of control,[6]; at 10 µM,100%
same,% of control,[7]; at 1 µM,87%
same,% of control,[7]; at 10 µM,100%
Cc1cc([C@@H](C)Nc2ccccc2C(=O)O)c2nc(N3CCOCC3)cc(=O)n2c1 [AZD-6482],% of control,[8],100%
N#Cc1cccc(-c2c[nH]c3ncnc(N4CCOCC4)c23)c1,% of control,[9],100%
CN(C)CCOc1ccc(-c2nc(-c3ccncc3)c(-c3ccc4c(c3)CC/C4=N\O)[nH]2)cc1,% of control,[10],1.3%
Cc1cc(C)cc([C@@H]2c3cc(C)ccc3NC(=O)CN2C(=O)c2ccc(Br)s2)c1,% of activity,[11]; at 1 µM,102%
same,% of activity,[11]; at 10 µM,103%
C=CC(=O)Nc1cccc(C(=O)Nc2ccc(Nc3cc(-c4[nH]c(SC)nc4C)ccn3)cc2)c1,% of control,[12]; at 1 µM,103%
same,% of control,[12]; at 5 µM,143%
